Laboratory results as given in patent US6737383B1, “Herbicidal oxadiazolidines” (priority 1999, dated 2004).

Tests used:
crabgrass = assay: Test B pre/postemergence crabgrass; assay type: in vivo, Digitaria sanguinalis
Method in brief: (§1)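 Test chemicals in a non-phytotoxic solvent mixture with surfactant were sprayed preemergence onto planted seeds and postemergence onto plants 2 to 18 cm tall (1- to 4-leaf stage). After twelve to sixteen days in a greenhouse, injury was visually rated against untreated controls from 0 (no effect) to 10 (complete control).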

purple nutsedge = assay: Test B pre/postemergence purple nutsedge; assay type: in vivo, Cyperus rotundus
Method in brief: as §1

duck salad = assay: Test B flood test duck salad; assay type: in vivo, Heteranthera limosa
Method in brief: (§2)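 Read-out is a visual response score from 0 (no effect) to 10 (complete control), assigned by comparison with untreated controls. Treatment was applied at the 2-leaf stage, and plants stayed in the greenhouse for twelve to sixteen days before scoring.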

bamyardgrass = assay: Test B flood test barnyardgrass; assay type: in vivo, Echinochloa crus-galli
Method in brief: as §2

[1] = Preemergence, Rate 62 g/ha, scale of 0 to 10 where 0 is no effect and 10 is complete control
[2] = Preemergence, Rate 250 g/ha, scale of 0 to 10 where 0 is no effect and 10 is complete control
[3] = Preemergence, Rate 500 g/ha, scale of 0 to 10 where 0 is no effect and 10 is complete control
[4] = Rate 62 g/ha, Postemergence, scale 0 to 10 (0 no effect, 10 complete control)
[5] = Rate 125 g/ha, Postemergence, scale of 0 to 10 where 0 is no effect and 10 is complete control
[6] = Rate 250 g/ha, Postemergence, scale of 0 to 10 where 0 is no effect and 10 is complete control
[7] = Rate 500 g/ha, Postemergence, scale 0 to 10, 0 no effect, 10 complete control
[8] = Rate 62 g/ha, headed Pre-emergence (flood test species), scale 0 to 10 (0 no effect, 10 complete control)
[9] = Rate 125 g/ha, Pre-emergence, flood test species, scale 0 to 10 where 0 is no effect and 10 is complete control
[10] = Rate 250 g/ha, Pre-emergence, flood-test species, scale 0 to 10, 0 is no effect, 10 is complete control
[11] = Rate 500 g/ha, Pre-emergence, flood test species, scale 0 to 10 (0 no effect, 10 complete control)
[12] = Postemergence, Rate 125 g/ha, scale 0 to 10, 0 is no effect, 10 is complete control

Question: With `CC(C)N(C(=O)n1oc(=O)n(CCCN(C)C)c1=O)c1ccc(F)cc1` [Compound 323] as the compound, how does the “Crabgrass plant response rating” value (crabgrass; [1]) read?
Answer: 0

Question: What about the “Crabgrass plant response rating (0 to 10 scale)” value (crabgrass; Preemergence, Rate 125 g/ha) of the same compound?
Answer: 0

Question: What about the “Crabgrass plant response rating” value (crabgrass; [2]) of the same compound?
Answer: 0

Question: What about the “Crabgrass plant response rating” value (crabgrass; [3]) of the same compound?
Answer: 2

Question: What about the “Crabgrass plant response rating” value (crabgrass; [4]) of the same compound?
Answer: 0

Question: What about the “Crabgrass plant response rating” value (crabgrass; [5]) of the same compound?
Answer: 0

Question: What about the “Plant response rating, Crabgrass” value (crabgrass; [6]) of the same compound?
Answer: 0

Question: And the “Plant response rating, Crabgrass” value (crabgrass; [7])?
Answer: 0

Question: And the “Nutsedge plant response rating” value (purple nutsedge; [1])?
Answer: 0

Question: And the “Nutsedge plant response rating (0 to 10 scale)” value (purple nutsedge; Preemergence, Rate 125 g/ha)?
Answer: 0

Question: And the “Nutsedge plant response rating” value (purple nutsedge; [3])?
Answer: 0

Question: What about the “Nutsedge plant response rating” value (purple nutsedge; [4]) of the same compound?
Answer: 0

Question: And the “Nutsedge plant response rating” value (purple nutsedge; [5])?
Answer: 0

Question: What about the “Plant response rating, Nutsedge” value (purple nutsedge; [6]) of the same compound?
Answer: 0

Question: What about the “Plant response rating, Nutsedge” value (purple nutsedge; [7]) of the same compound?
Answer: 0

Question: What about the “Ducksalad plant response rating” value (duck salad; [8]) of the same compound?
Answer: 0

Question: What about the “Ducksalad plant response rating” value (duck salad; [9]) of the same compound?
Answer: 0

Question: And the “Ducksalad plant response rating” value (duck salad; [10])?
Answer: 0

Question: What about the “Ducksalad plant response rating” value (duck salad; [11]) of the same compound?
Answer: 0

Question: And the “Barnyardgrass plant response rating” value (bamyardgrass; [8])?
Answer: 0

Question: What about the “Barnyardgrass plant response rating” value (bamyardgrass; [9]) of the same compound?
Answer: 0

Question: What about the “Barnyardgrass plant response rating” value (bamyardgrass; [10]) of the same compound?
Answer: 0

Question: And the “Barnyardgrass plant response rating” value (bamyardgrass; [11])?
Answer: 0

Question: `CC(C)N(C(=O)n1oc(=O)n(C2CC3CCC2C3)c1=O)c1ccc(F)cc1F` (stereo not drawn) [Compound 326] was tested. Which “Plant response rating, Crabgrass” value (crabgrass; [12]) did it give?
Answer: 0

Question: And the “Crabgrass plant response rating” value (crabgrass; [1])?
Answer: 0

Question: And the “Crabgrass plant response rating (0 to 10 scale)” value (crabgrass; Preemergence, Rate 125 g/ha)?
Answer: 0

Question: And the “Crabgrass plant response rating” value (crabgrass; [2])?
Answer: 3

Question: And the “Crabgrass plant response rating” value (crabgrass; [3])?
Answer: 5

Question: And the “Crabgrass plant response rating” value (crabgrass; [4])?
Answer: 0

Question: What about the “Plant response rating, Crabgrass” value (crabgrass; [6]) of the same compound?
Answer: 1

Question: What about the “Plant response rating, Crabgrass” value (crabgrass; [7]) of the same compound?
Answer: 3

Question: What about the “Plant response rating, Nutsedge” value (purple nutsedge; [12]) of the same compound?
Answer: 0

Question: And the “Nutsedge plant response rating” value (purple nutsedge; [1])?
Answer: 0

Question: And the “Nutsedge plant response rating” value (purple nutsedge; [2])?
Answer: 0

Question: And the “Nutsedge plant response rating” value (purple nutsedge; [3])?
Answer: 0

Question: And the “Nutsedge plant response rating” value (purple nutsedge; [4])?
Answer: 0

Question: And the “Plant response rating, Nutsedge” value (purple nutsedge; [6])?
Answer: 0

Question: And the “Plant response rating, Nutsedge” value (purple nutsedge; [7])?
Answer: 0

Question: What about the “Ducksalad plant response rating” value (duck salad; [8]) of the same compound?
Answer: 0

Question: What about the “Ducksalad plant response rating” value (duck salad; [9]) of the same compound?
Answer: 0

Question: And the “Ducksalad plant response rating” value (duck salad; [10])?
Answer: 0

Question: What about the “Ducksalad plant response rating” value (duck salad; [11]) of the same compound?
Answer: 0

Question: And the “Barnyardgrass plant response rating” value (bamyardgrass; [8])?
Answer: 0

Question: What about the “Barnyardgrass plant response rating” value (bamyardgrass; [9]) of the same compound?
Answer: 0

Question: What about the “Barnyardgrass plant response rating” value (bamyardgrass; [10]) of the same compound?
Answer: 8

Question: What about the “Barnyardgrass plant response rating” value (bamyardgrass; [11]) of the same compound?
Answer: 9

Question: With `CC(C)N(C(=O)n1oc(=O)n(-c2ccc3ccccc3c2)c1=O)c1ccc(F)cc1F` [Compound 335] as the compound, how does the “Plant response rating, Crabgrass” value (crabgrass; [12]) read?
Answer: 0

Question: And the “Crabgrass plant response rating” value (crabgrass; [1])?
Answer: 0

Question: And the “Crabgrass plant response rating (0 to 10 scale)” value (crabgrass; Preemergence, Rate 125 g/ha)?
Answer: 0

Question: And the “Crabgrass plant response rating” value (crabgrass; [2])?
Answer: 2

Question: And the “Crabgrass plant response rating” value (crabgrass; [3])?
Answer: 2

Question: What about the “Crabgrass plant response rating” value (crabgrass; [4]) of the same compound?
Answer: 0

Question: What about the “Plant response rating, Crabgrass” value (crabgrass; [7]) of the same compound?
Answer: 0

Question: What about the “Plant response rating, Nutsedge” value (purple nutsedge; [12]) of the same compound?
Answer: 0

Question: And the “Nutsedge plant response rating” value (purple nutsedge; [1])?
Answer: 0

Question: And the “Nutsedge plant response rating (0 to 10 scale)” value (purple nutsedge; Preemergence, Rate 125 g/ha)?
Answer: 0

Question: And the “Nutsedge plant response rating” value (purple nutsedge; [2])?
Answer: 0

Question: And the “Nutsedge plant response rating” value (purple nutsedge; [3])?
Answer: 0

Question: And the “Nutsedge plant response rating” value (purple nutsedge; [4])?
Answer: 0

Question: What about the “Plant response rating, Nutsedge” value (purple nutsedge; [7]) of the same compound?
Answer: 0

Question: And the “Ducksalad plant response rating” value (duck salad; [8])?
Answer: 0

Question: What about the “Ducksalad plant response rating” value (duck salad; [9]) of the same compound?
Answer: 0

Question: And the “Ducksalad plant response rating” value (duck salad; [10])?
Answer: 0

Question: What about the “Ducksalad plant response rating” value (duck salad; [11]) of the same compound?
Answer: 0

Question: And the “Barnyardgrass plant response rating” value (bamyardgrass; [8])?
Answer: 0

Question: And the “Barnyardgrass plant response rating” value (bamyardgrass; [9])?
Answer: 0

Question: What about the “Barnyardgrass plant response rating” value (bamyardgrass; [10]) of the same compound?
Answer: 0

Question: And the “Barnyardgrass plant response rating” value (bamyardgrass; [11])?
Answer: 4

Question: Which results are given for `Cc1c(-n2c(=O)on(C(=O)N(c3ccc(F)cc3F)C(C)C)c2=O)ccc2ccccc12` [Compound 337]?
Answer: Plant response rating, Crabgrass (crabgrass; [12]): 0; Crabgrass plant response rating (crabgrass; [1]): 0; Crabgrass plant response rating (0 to 10 scale) (crabgrass; Preemergence, Rate 125 g/ha): 0; Crabgrass plant response rating (crabgrass; [2]): 0; Crabgrass plant response rating (crabgrass; [3]): 3; Crabgrass plant response rating (crabgrass; [4]): 0; Plant response rating, Crabgrass (crabgrass; [7]): 0; Plant response rating, Nutsedge (purple nutsedge; [12]): 0; Nutsedge plant response rating (purple nutsedge; [1]): 0; Nutsedge plant response rating (0 to 10 scale) (purple nutsedge; Preemergence, Rate 125 g/ha): 0; Nutsedge plant response rating (purple nutsedge; [2]): 0; Nutsedge plant response rating (purple nutsedge; [3]): 0; Nutsedge plant response rating (purple nutsedge; [4]): 0; Plant response rating, Nutsedge (purple nutsedge; [7]): 0; Ducksalad plant response rating (duck salad; [8]): 0; Ducksalad plant response rating (duck salad; [9]): 0; Ducksalad plant response rating (duck salad; [10]): 0; Ducksalad plant response rating (duck salad; [11]): 0; Barnyardgrass plant response rating (bamyardgrass; [8]): 0; Barnyardgrass plant response rating (bamyardgrass; [9]): 0; Barnyardgrass plant response rating (bamyardgrass; [10]): 0; Barnyardgrass plant response rating (bamyardgrass; [11]): 5
